The numbers were not newly measured in PMC6108082 (Journal of medicinal chemistry, 2018), which cites them from elsewhere.

The series relates to P-glycoprotein.

Take `CCCc1ccc(-c2ccc(N(C[C@@H](N)[C@@H](C)CC)C(=O)[C@@H]3C[C@H]3c3ccccn3)cc2)cc1.Cl` [compound 1, 2-PCCA]: the P-glycoprotein substrate activity entry is given as “substrate of P-glycoprotein”.
